Laboratory results taken from the NIST ThermoML archive (doi:10.1016/j.jct.2006.05.008).

Assay: molar heat capacity at constant pressure; wn = mass fraction of the nth substance listed
Settings: Small (less than 1 g) adiabatic calorimetry

CCCCn1cc[n+](C)c1.[Br-] [1-butyl-3-methylimidazolium bromide] + O
Settings	molar heat capacity at constant pressure [J/K/mol]
152.96 K, 101.3 kPa, Glass, w2 = 0.00482	151.04
155.53 K, 101.3 kPa, Glass, w2 = 0.00482	152.59
158.09 K, 101.3 kPa, Glass, w2 = 0.00482	154.17
160.66 K, 101.3 kPa, Glass, w2 = 0.00482	155.77
163.24 K, 101.3 kPa, Glass, w2 = 0.00482	157.38
165.81 K, 101.3 kPa, Glass, w2 = 0.00482	158.96
168.39 K, 101.3 kPa, Glass, w2 = 0.00482	160.57
170.97 K, 101.3 kPa, Glass, w2 = 0.00482	162.11
173.55 K, 101.3 kPa, Glass, w2 = 0.00482	163.78
176.13 K, 101.3 kPa, Glass, w2 = 0.00482	165.35
178.71 K, 101.3 kPa, Glass, w2 = 0.00482	167.03
181.3 K, 101.3 kPa, Glass, w2 = 0.00482	168.7
183.89 K, 101.3 kPa, Glass, w2 = 0.00482	170.41
186.48 K, 101.3 kPa, Glass, w2 = 0.00482	172.04
189.06 K, 101.3 kPa, Glass, w2 = 0.00482	173.78
191.65 K, 101.3 kPa, Glass, w2 = 0.00482	175.6
194.25 K, 101.3 kPa, Glass, w2 = 0.00482	177.44
196.84 K, 101.3 kPa, Glass, w2 = 0.00482	179.31
199.44 K, 101.3 kPa, Glass, w2 = 0.00482	181.34
201.78 K, 101.3 kPa, Glass, w2 = 0.00482	183.39
203.87 K, 101.3 kPa, Glass, w2 = 0.00482	185.23
205.95 K, 101.3 kPa, Glass, w2 = 0.00482	187.63
208.05 K, 101.3 kPa, Glass, w2 = 0.00482	190.57
209.63 K, 101 kPa, Liquid, w2 = 0.0495	190.63
210.13 K, 101.3 kPa, Glass, w2 = 0.00482	194.11
211.86 K, 101 kPa, Liquid, w2 = 0.0495	190.98
212.18 K, 101.3 kPa, Glass, w2 = 0.00482	199.24
213.95 K, 101 kPa, Liquid, w2 = 0.0495	191.32
214.19 K, 101.3 kPa, Glass, w2 = 0.00482	209.18
216.04 K, 101 kPa, Liquid, w2 = 0.0495	191.7
216.1 K, 101.3 kPa, Glass, w2 = 0.00482	229.46
218.13 K, 101 kPa, Liquid, w2 = 0.0495	191.97

Crystal
Settings	molar heat capacity at constant pressure [J/K/mol]
153.47 K, w2 = 0.00482	140.32
154 K, w2 = 0.0495	102.07
154.55 K, w2 = 0.0169	127.32
154.86 K, w2 = 0.0051	140.76
156.05 K, w2 = 0.00482	141.71
156.62 K, w2 = 0.0169	128.46
156.86 K, w2 = 0.0495	103.54
157.46 K, w2 = 0.0051	142.19
158.64 K, w2 = 0.00482	143.05
158.69 K, w2 = 0.0169	129.54
159.72 K, w2 = 0.0495	105.03
160.06 K, w2 = 0.0051	143.6
160.76 K, w2 = 0.0169	130.58
161.22 K, w2 = 0.00482	144.52
162.58 K, w2 = 0.0495	107.12
162.67 K, w2 = 0.0051	145.04
162.83 K, w2 = 0.0169	131.81
163.81 K, w2 = 0.00482	145.98
164.91 K, w2 = 0.0169	133.35
165.35 K, w2 = 0.0051	146.89
165.42 K, w2 = 0.0495	110.43
166.4 K, w2 = 0.00482	147.42
166.98 K, w2 = 0.0169	135.28
167.95 K, w2 = 0.0051	148.6
168.2 K, w2 = 0.0495	119.37
168.99 K, w2 = 0.00482	148.99
169.05 K, w2 = 0.0169	138.58
170.54 K, w2 = 0.0051	150.98
170.84 K, w2 = 0.0495	133.87
171.1 K, w2 = 0.0169	143.34
171.58 K, w2 = 0.00482	150.69
173.12 K, w2 = 0.0051	153.72
173.15 K, w2 = 0.0169	146.3
173.43 K, w2 = 0.0495	137.89
174.17 K, w2 = 0.00482	152.56
175.22 K, w2 = 0.0169	148.17
175.7 K, w2 = 0.0051	155.58
176.02 K, w2 = 0.0495	137.25
176.76 K, w2 = 0.00482	154.52
177.3 K, w2 = 0.0169	149.6
178.27 K, w2 = 0.0051	157.05
178.63 K, w2 = 0.0495	136.83
179.35 K, w2 = 0.00482	156.32
179.39 K, w2 = 0.0169	150.75
180.85 K, w2 = 0.0051	158.5
181.26 K, w2 = 0.0495	136.85
181.47 K, w2 = 0.0169	151.73
181.94 K, w2 = 0.00482	158.09
182.13 K, w2 = 0.0495	137.03
183.43 K, w2 = 0.0051	159.93
183.55 K, w2 = 0.0169	152.69
183.89 K, w2 = 0.0495	137.25
184.55 K, w2 = 0.00482	159.97
184.8 K, w2 = 0.0495	137.33
185.63 K, w2 = 0.0169	153.62
186 K, w2 = 0.0051	161.23
186.52 K, w2 = 0.0495	137.88
187.15 K, w2 = 0.00482	161.48
187.43 K, w2 = 0.0495	137.82
187.72 K, w2 = 0.0169	154.64
188.57 K, w2 = 0.0051	162.67
189.16 K, w2 = 0.0495	138.51
189.75 K, w2 = 0.00482	163.1
189.81 K, w2 = 0.0169	155.65
190.07 K, w2 = 0.0495	138.44
191.13 K, w2 = 0.0051	164.05
191.82 K, w2 = 0.0495	139.23
191.89 K, w2 = 0.0169	156.63
192.35 K, w2 = 0.00482	164.66
192.72 K, w2 = 0.0495	139.22
193.7 K, w2 = 0.0051	165.5
193.98 K, w2 = 0.0169	157.56
194.48 K, w2 = 0.0495	139.88
194.95 K, w2 = 0.00482	166.1
195.38 K, w2 = 0.0495	139.99
196.08 K, w2 = 0.0169	158.61
196.26 K, w2 = 0.0051	166.89
197.16 K, w2 = 0.0495	140.43
197.55 K, w2 = 0.00482	167.55
198.05 K, w2 = 0.0495	140.75
198.17 K, w2 = 0.0169	159.59
198.82 K, w2 = 0.0051	168.3
200.15 K, w2 = 0.00482	169
200.26 K, w2 = 0.0169	160.53
200.73 K, w2 = 0.0495	141.5
201.38 K, w2 = 0.0051	169.66
202.36 K, w2 = 0.0169	161.49
202.75 K, w2 = 0.00482	170.67
203.43 K, w2 = 0.0495	142.32
203.93 K, w2 = 0.0051	171.24
204.46 K, w2 = 0.0169	162.5
205.36 K, w2 = 0.00482	172.16
206.48 K, w2 = 0.0051	172.9
206.55 K, w2 = 0.0169	163.54
207.97 K, w2 = 0.00482	173.71
208.05 K, w2 = 0.0495	144.92
208.65 K, w2 = 0.0169	164.5
209.03 K, w2 = 0.0051	175.02
210.59 K, w2 = 0.00482	175.21
210.75 K, w2 = 0.0495	151.13
210.77 K, w2 = 0.0169	165.47
211.56 K, w2 = 0.0051	176.7
212.87 K, w2 = 0.0169	166.55
213.21 K, w2 = 0.00482	176.73
213.38 K, w2 = 0.0495	150.25
214.1 K, w2 = 0.0051	177.3
214.97 K, w2 = 0.0169	167.69
215.83 K, w2 = 0.00482	178.25
215.99 K, w2 = 0.0495	154.67
216.64 K, w2 = 0.0051	178.89
216.82 K, w2 = 0.00482	178.65
217.07 K, w2 = 0.0169	169.05
217.64 K, w2 = 0.0169	168.8
